Where two headings read alike, the source gives them in different places. Where a SMILES comes first, the peptide text is derived from it. The star is where a group is joined. Cbz = O=C(OCc1ccccc1)*
Assays:
CRBN-DDB1 complex [1] = target: T1, CRBN-DDB1 complex (Homo sapiens, UniProt Q96SW2); assay: fluorescence polarization (FP) assay, binding with the CRBN-DDB1 complex; details: single concentration of 1 μM; for binding to CRBN-DDB1 complex in FP assay (relative binding affinity): tested three times, conditions adjusted to around 84% of maximum signal for 1 μM lenalidomide
Description: All analogs were tested at a single concentration of 1 μM three times.

CRBN-DDB1 complex [2] = target: T1, CRBN-DDB1 complex; assay: as above
[3] = stability in human liver microsomes (hLM); type: in vitro ADME; details: after 0.5 h
[4] = stability in human plasma (hP); type: in vitro ADME; details: after 4.0 h
Description: (§1) Under acidic conditions, all compounds are very stable.

[5] = stability in phosphate buffer with different pHs; type: physicochemical; details: phosphate buffer pH 1.0, after 24 h
Description: as §1

[6] = stability in phosphate buffer with different pHs; type: physicochemical; details: for PB7.4, percent compound remaining: phosphate buffer pH 7.4, after 24 h, 37° C.
BRD4 in MV4; 11 cells = BRD4 in MV4; 11 cells (Homo sapiens, UniProt O60885); assay: Western blot of BRD4 in MV4; 11 cells (time course, dose response, mechanism); type: cell-based; details: for effect of 1 h pretreatment on BRD4 degradation induced by 13: pretreated 1 h, then 13 for 3 h
Description: We next verified the mechanism of action of degrader 13 (FIGS. 8G-8H).

MV4; 11 cells [7] = assay: AlamarBlue cell viability; type: cell-based, human; details: 72 h
Description: (§2) FIGS. 9A-9D. Functional studies of the PROTACs including anti-proliferation, apoptosis, G1 phase arrest, and reduced population in S phase. (FIG. 9A) AlamarBlue™ Cell Viability. […] (FIG. 9B) MV4; 11 cells were treated by indicated dosage of 13 for 48 h followed by flow cytofluorimetric cell cycle analysis. (FIGS. 9C and 9D) MV4; 11 cells were treated by indicated dosage of 13 for 48 h followed by flow cytofluorimetric apoptosis analyses.
AlamarBlue Cell Viability Cells were seeded in a 96-well plate at a density of 5000-10000 cells in 100 μl media per well and treated with DMSO control or test compounds at indicated doses. After incubated in CO2 incubator for 72 hours, cells were treated with 10 μL AlamarBlue solution ([…])). Fluorescence was measured in a plate reader with an excitation wavelength at 530-560 nm and emission wavelength at 590 nm. The fluorescence was normalized to the DMSO-treated cells, and the IC50 was calculated using GraphPad Prism 9 software.

MV4; 11 cells [8] = assay: flow cytofluorimetric cell cycle analysis; type: cell-based, human; details: 48 h
Description: as §2
(§3) Flow Cytometry Cell apoptosis and cell cycle were detected by Attune Flow cytometer (Thermo Fisher). Cells were seeded in a 6-well plate and treated with the indicated concentrations of compounds for 48 h. For samples for cell apoptosis detection, cells were harvested and incubated in Annexin V-FITC and PI reagents each for 15 minutes (Annexin V-FITC apoptosis detection kit, Invitrogen). For the samples for cell cycle detection, cells were fixed in 70% cold ethanol overnight and stained with PI (500 μg/ml) for 15 minutes. Flow data were analyzed using Flowjo software.

MV4; 11 cells [9] = assay: flow cytofluorimetric apoptosis analysis; type: cell-based, human; details: 48 h
Description: as §2, §3

caspase 3 cleavage = assay: Western blot of caspase 3 and cleaved caspase 3 in MV4; 11 cells; details: at 10 nm to 10 µM concentrations
[10] = in human blood; cited from earlier work
[11] = in-vivo in humans; cited from earlier work
[12] = phosphate buffer pH 8.8, after 24 h

T1 sequence (Q96SW2 whole entry): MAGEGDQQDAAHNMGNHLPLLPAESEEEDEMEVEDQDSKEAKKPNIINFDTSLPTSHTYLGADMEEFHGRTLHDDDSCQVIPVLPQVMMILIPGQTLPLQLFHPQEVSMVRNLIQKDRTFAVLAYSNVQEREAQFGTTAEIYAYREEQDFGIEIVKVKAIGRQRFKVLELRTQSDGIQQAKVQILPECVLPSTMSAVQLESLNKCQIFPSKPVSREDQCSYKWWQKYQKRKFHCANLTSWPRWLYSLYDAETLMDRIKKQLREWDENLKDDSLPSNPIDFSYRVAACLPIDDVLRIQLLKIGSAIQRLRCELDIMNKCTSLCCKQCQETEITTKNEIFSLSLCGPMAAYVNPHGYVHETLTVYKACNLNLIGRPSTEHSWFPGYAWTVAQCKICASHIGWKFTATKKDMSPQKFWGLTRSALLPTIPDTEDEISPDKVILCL
T1 sequence (Q16531 2-1140 partner limits assumed): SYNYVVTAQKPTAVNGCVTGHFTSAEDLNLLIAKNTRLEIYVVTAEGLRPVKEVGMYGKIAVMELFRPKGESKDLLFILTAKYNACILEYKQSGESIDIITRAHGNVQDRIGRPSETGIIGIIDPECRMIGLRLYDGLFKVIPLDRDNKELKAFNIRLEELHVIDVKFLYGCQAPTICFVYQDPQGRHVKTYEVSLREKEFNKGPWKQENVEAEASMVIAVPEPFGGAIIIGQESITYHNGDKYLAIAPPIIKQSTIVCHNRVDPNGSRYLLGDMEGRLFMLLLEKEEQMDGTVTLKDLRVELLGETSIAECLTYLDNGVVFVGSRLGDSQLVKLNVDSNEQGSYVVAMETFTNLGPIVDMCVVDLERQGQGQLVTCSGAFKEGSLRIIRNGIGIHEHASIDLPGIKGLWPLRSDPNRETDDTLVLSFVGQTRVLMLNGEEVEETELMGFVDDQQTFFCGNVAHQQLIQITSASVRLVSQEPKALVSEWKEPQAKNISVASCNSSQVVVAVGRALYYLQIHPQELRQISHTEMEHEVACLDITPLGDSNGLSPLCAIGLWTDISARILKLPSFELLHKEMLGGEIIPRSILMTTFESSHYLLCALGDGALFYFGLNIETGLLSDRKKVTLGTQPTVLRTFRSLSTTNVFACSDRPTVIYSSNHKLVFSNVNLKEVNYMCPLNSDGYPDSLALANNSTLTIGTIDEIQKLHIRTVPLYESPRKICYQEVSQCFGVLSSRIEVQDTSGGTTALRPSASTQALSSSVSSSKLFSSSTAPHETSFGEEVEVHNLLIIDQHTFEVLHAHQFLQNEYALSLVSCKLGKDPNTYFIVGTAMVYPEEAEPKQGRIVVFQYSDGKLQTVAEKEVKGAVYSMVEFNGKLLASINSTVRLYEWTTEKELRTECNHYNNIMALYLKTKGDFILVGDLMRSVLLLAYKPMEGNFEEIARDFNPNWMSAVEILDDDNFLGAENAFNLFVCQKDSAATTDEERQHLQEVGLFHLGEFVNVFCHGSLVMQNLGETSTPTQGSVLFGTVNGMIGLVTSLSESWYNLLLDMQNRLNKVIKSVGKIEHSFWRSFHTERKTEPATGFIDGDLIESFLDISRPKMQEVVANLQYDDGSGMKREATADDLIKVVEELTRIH

SMILES: O=C1CCN(c2ccccc2O)C(=O)N1 [Compound 3A, 1-(2-hydroxyphenyl)dihydropyrimidine-2,4(1H,3H)-dione]
- binding to CRBN-DDB1 complex in FP assay, in words (CRBN-DDB1 complex [1]): almost completely lost the binding affinity

SMILES: Cc1ccccc1N1CCC(=O)NC1=O [Compound 3B, 1-(o-tolyl)dihydropyrimidine-2,4(1H,3H)-dione]
- binding to CRBN-DDB1 complex in FP assay (relative binding affinity) (CRBN-DDB1 complex [1]): 35%
- increase of affinity by ortho-Me relative to parent PDHU 2 (CRBN-DDB1 complex [2]; FP assay Kd): about 2.5 times

SMILES: COc1ccccc1N1CCC(=O)NC1=O [Compound 3C, 1-(2-methoxyphenyl)dihydropyrimidine-2,4(1H,3H)-dione]
- binding to CRBN-DDB1 complex in FP assay, in words (CRBN-DDB1 complex [1]): decreased the binding

SMILES: CCc1ccccc1N1CCC(=O)NC1=O [Compound 3D, 1-(2-ethylphenyl)dihydropyrimidine-2,4(1H,3H)-dione]
- binding to CRBN-DDB1 complex in FP assay (relative binding affinity) (CRBN-DDB1 complex [1]): 29%

SMILES: O=C1CCN(c2ccccc2Cl)C(=O)N1 [Compound 3E, 1-(2-chlorophenyl)dihydropyrimidine-2,4(1H,3H)-dione]
- binding to CRBN-DDB1 complex in FP assay (relative binding affinity) (CRBN-DDB1 complex [1]): 36%

SMILES: O=C1CCN(c2cccc(O)c2)C(=O)N1 [Compound 4A, 1-(3-hydroxyphenyl)dihydropyrimidine-2,4(1H,3H)-dione]
- binding to CRBN-DDB1 complex in FP assay (relative binding affinity) (CRBN-DDB1 complex [1]): 57%

SMILES: COc1cccc(N2CCC(=O)NC2=O)c1 [Compound 4C, 1-(3-methoxyphenyl)dihydropyrimidine-2,4(1H,3H)-dione]
- binding to CRBN-DDB1 complex in FP assay (relative binding affinity) (CRBN-DDB1 complex [1]): 33%

SMILES: CC(C)(C)OC(=O)NCC#Cc1cccc(N2CCC(=O)NC2=O)c1 [Compound 4F, tert-butyl (3-(3-(2,4-dioxotetrahydropyrimidin-1(2H)-yl)phenyl)prop-2-yn-1-yl)carbamate]
- binding to CRBN-DDB1 complex in FP assay (relative binding affinity) (CRBN-DDB1 complex [1]): 56%

SMILES: CC(C)(C)OC(=O)COc1cccc(N2CCC(=O)NC2=O)c1 [Compound 4K, tert-butyl 2-(3-(2,4-dioxotetrahydropyrimidin-1(2H)-yl)phenoxy)acetate]
- binding to CRBN-DDB1 complex in FP assay (relative binding affinity) (CRBN-DDB1 complex [1]): 44%

SMILES: O=C1CCN(c2ccc(O)cc2)C(=O)N1 [Compound 5A, 1-(4-hydroxyphenyl)dihydropyrimidine-2,4(1H,3H)-dione]
- binding to CRBN-DDB1 complex in FP assay, in words (CRBN-DDB1 complex [1]): did not improve the binding as much as those on the meta-positions
- binding to CRBN-DDB1 complex in FP assay (relative binding affinity) (CRBN-DDB1 complex [1]): 38%

SMILES: CC(C)(C)OC(=O)COc1ccc(N2CCC(=O)NC2=O)cc1 [Compound 5K, tert-butyl 2-(4-(2,4-dioxotetrahydropyrimidin-1(2H)-yl)phenoxy)acetate]
- binding to CRBN-DDB1 complex in FP assay, in words (CRBN-DDB1 complex [1]): did not improve the binding as much as those on the meta-positions

SMILES: Cc1c(C#CCNC(=O)OC(C)(C)C)cccc1N1CCC(=O)NC1=O [Compound 6F, tert-butyl (3-(3-(2,4-dioxotetrahydropyrimidin-1(2H)-yl)-2-methylphenyl)prop-2-yn-1-yl)carbamate]
- hLM, percent compound remaining [3]: 87%
- hP, percent compound remaining [4]: 97%
- PB1.0, percent compound remaining [5]: >99%
- PB7.4, percent compound remaining [6]: >99%
- PB8.8, percent compound remaining [6, 12]: 93%

SMILES: Cc1ccc(O)cc1N1CCC(=O)NC1=O [Compound 7A, 1-(5-hydroxy-2-methylphenyl)dihydropyrimidine-2,4(1H,3H)-dione]
- binding to CRBN-DDB1 complex in FP assay (relative binding affinity) (CRBN-DDB1 complex [1]): 81%

SMILES: Cc1c(OCC(=O)N2CCCCC2)cccc1N1CCC(=O)NC1=O [Compound 9, 1-(2-methyl-3-(2-oxo-2-(piperidin-1-yl)ethoxy)phenyl)dihydropyrimidine-2,4(1H,3H)-dione]
- hLM, percent compound remaining [3]: 85%
- PB1.0, percent compound remaining [5]: >99%
- effect of 1 h pretreatment on BRD4 degradation induced by 13 (BRD4 in MV4; 11 cells): abolished the BRD4 degradation induced by 13
- anti-proliferation activity, in words (MV4; 11 cells [7]): did not show any anti-proliferation activity at up to 100 μM
- PB7.4, percent compound remaining [6]: >99%
- PB8.8, percent compound remaining [6, 12]: 95%

SMILES: CCNC(=O)COc1cccc(N2CCC(=O)NC2=O)c1C [Compound 10, 2-(3-(2,4-dioxotetrahydropyrimidin-1(2H)-yl)-2-methylphenoxy)-N-ethylacetamide]
- hLM, percent compound remaining [3]: 100%
- PB1.0, percent compound remaining [5]: >99%
- PB7.4, percent compound remaining [6]: >99%
- PB8.8, percent compound remaining [6, 12]: 95%

SMILES: CC(=O)NCCC#Cc1cccc(N2CCC(=O)NC2=O)c1C [Compound 11, N-(4-(3-(2,4-dioxotetrahydropyrimidin-1(2H)-yl)-2-methylphenyl)but-3-yn-1-yl)acetamide]
- hLM, percent compound remaining [3]: 90%
- PB1.0, percent compound remaining [5]: >99%
- PB7.4, percent compound remaining [6]: >99%
- PB8.8, percent compound remaining [6, 12]: 90%

SMILES: Cc1sc2c(c1C)C(c1ccc(Cl)cc1)=N[C@@H](CC(=O)NC1CCN(C(=O)COc3cccc(N4CCC(=O)NC4=O)c3C)CC1)c1nnc(C)n1-2 [Compound 13, (S)-2-(4-(4-chlorophenyl)-2,3,9-trimethyl-6H-thieno[3,2-f][1,2,4]triazolo[4,3-a][1,4]diazepin-6-yl)-N-(1-(2-(3-(2,4-dioxotetrahydropyrimidin-1(2H)-yl)-2-methylphenoxy)acetyl)piperidin-4-yl)acetamide]
- cell cycle effect, in words (MV4; 11 cells [8]): induce G1 phase arrest, decrease the cell population in S phase
- cell apoptosis, in words (MV4; 11 cells [9]): induce cell apoptosis in a dose-dependent manner
- caspase 3 cleavage, in words (caspase 3 cleavage): successful in inducing caspase 3 cleavage

SMILES: Cc1sc2c(c1C)C(c1ccc(Cl)cc1)=N[C@@H](CC(=O)NC1CCN(C(=O)COc3cccc(N4CCC(=O)N(C)C4=O)c3C)CC1)c1nnc(C)n1-2 [Compound 13NT, (S)-2-(4-(4-chlorophenyl)-2,3,9-trimethyl-6H-thieno[3,2-f][1,2,4]triazolo[4,3-a][1,4]diazepin-6-yl)-N-(1-(2-(2-methyl-3-(3-methyl-2,4-dioxotetrahydropyrimidin-1(2H)-yl)phenoxy)acetyl)piperidin-4-yl)acetamide]
- BRD4 degradation activity, in words (BRD4 in MV4; 11 cells; several concentrations, 24 h): No degradation activity of BRD4 was observed

SMILES: Cc1ccc(Oc2ccc(C=O)cc2)cc1N1CCC(=O)NC1=O [Compound 15A]
- binding to CRBN-DDB1 complex in FP assay (relative binding affinity) (CRBN-DDB1 complex [1]): 70%
- Kd (CRBN-DDB1 complex [2]; FP assay): 170 nM

SMILES: O=Cc1ccc(Oc2cccc(N3CCC(=O)NC3=O)c2)cc1 [Compound 15B]
- binding to CRBN-DDB1 complex in FP assay (relative binding affinity) (CRBN-DDB1 complex [1]): 33%

SMILES: Cc1c(Oc2ccc(C=O)cc2)cccc1N1CCC(=O)NC1=O [Compound 15C]
- binding to CRBN-DDB1 complex in FP assay (relative binding affinity) (CRBN-DDB1 complex [1]): 21%

SMILES: Cc1ccc(Oc2ccccc2)cc1N1CCC(=O)NC1=O [Compound 15D]
- binding to CRBN-DDB1 complex in FP assay, in words (CRBN-DDB1 complex [1]): slightly weaker than 15A

SMILES: COC(=O)c1cccc(Nc2ccc(C)c(N3CCC(=O)NC3=O)c2)c1 [Compound 16A]
- binding to CRBN-DDB1 complex in FP assay, in words (CRBN-DDB1 complex [1]): remain relatively high binding affinity

SMILES: Cc1ccc(Nc2ccccc2)cc1N1CCC(=O)NC1=O [Compound 16B]
- binding to CRBN-DDB1 complex in FP assay, in words (CRBN-DDB1 complex [1]): remain relatively high binding affinity

SMILES: Cc1sc2c(c1C)C(c1ccc(Cl)cc1)=N[C@@H](CC(=O)OC(C)(C)C)c1nnc(C)n1-2 [JQ1, reference compound]
- anti-proliferation activity, in words (MV4; 11 cells [7]): weaker anti-proliferation activity than 13, but higher activity than compound 13NT

SMILES: Nc1cccc2c1CN(C1CCC(=O)NC1=O)C2=O (stereo not shown) [Lenalidomide, lenalidomide, reference compound]
- hLM, percent compound remaining [3]: 89%
- hP, percent compound remaining [4]: 62%
- PB1.0, percent compound remaining [5]: >99%
- PB7.4, percent compound remaining [6]: 39%
- PB8.8, percent compound remaining ([6]; phosphate buffer pH 8.8, after 2 h): 20%
- PB8.8, percent compound remaining [6, 12]: 0%

SMILES: CC(C)C[C@@H](C=O)NC(=O)[C@H](CC(C)C)NC(=O)[C@H](CC(C)C)NC(=O)OCc1ccccc1 [MG132, reference compound] (Cbz-Leu-Leu-Leu-aldehyde)
- effect of 1 h pretreatment on BRD4 degradation induced by 13 (BRD4 in MV4; 11 cells): abolished the BRD4 degradation induced by 13

SMILES: NS(=O)(=O)OC[C@@H]1C[C@@H](n2ccc3c(N[C@H]4CCc5ccccc54)ncnc32)C[C@@H]1O [MLN4924, reference compound]
- effect of 1 h pretreatment on BRD4 degradation induced by 13 (BRD4 in MV4; 11 cells): abolished the BRD4 degradation induced by 13

SMILES: O=C1CCC(N2C(=O)c3ccccc3C2=O)C(=O)N1 (stereo not shown) [thalidomide]
- racemization half-life [10]: ~2.0 h
- racemization half-life [11]: ~5.0 h
